From publication PMC6691133, “Targeting PFKFB3 alleviates cerebral ischemia-reperfusion injury in mice” (Scientific Reports, 2019) come the findings set out here.

The target in this assay is T1, 6-phosphofructo-2-kinase/fructose-2,6-bisphosphatase-3 (PFKFB3) (Homo sapiens, UniProt Q16875).
T1 construct: Recombinant full length human PFKFB3 protein purified from Sf9 baculoviral system
Briefly: ADP-Glo kinase assay with recombinant PFKFB3 (ATP + F6P). It counts as biochemical. (ADP-Glo turns the ADP formed in a reaction into a luminescent signal.)

T1 sequence (Q16875 whole entry): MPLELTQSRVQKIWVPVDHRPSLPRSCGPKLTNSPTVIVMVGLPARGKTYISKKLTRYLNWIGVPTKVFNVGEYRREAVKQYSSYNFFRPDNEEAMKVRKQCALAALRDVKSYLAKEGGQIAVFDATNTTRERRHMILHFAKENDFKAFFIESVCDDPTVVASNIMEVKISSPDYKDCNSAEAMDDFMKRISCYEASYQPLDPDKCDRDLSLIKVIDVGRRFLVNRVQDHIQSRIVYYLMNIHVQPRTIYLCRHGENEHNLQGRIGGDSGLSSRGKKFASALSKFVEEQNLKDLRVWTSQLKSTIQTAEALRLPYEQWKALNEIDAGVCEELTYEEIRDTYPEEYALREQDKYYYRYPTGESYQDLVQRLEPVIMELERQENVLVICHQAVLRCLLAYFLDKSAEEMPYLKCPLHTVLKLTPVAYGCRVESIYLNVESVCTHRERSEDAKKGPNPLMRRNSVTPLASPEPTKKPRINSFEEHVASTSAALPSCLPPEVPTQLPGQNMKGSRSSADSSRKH

Take `Cc1noc(C)c1Cn1cc(C#N)c2cc(Oc3ccc(NC(=O)[C@@H]4CCCN4)cc3)ccc21` [AZ67]: the IC50 was found to be 18 nM.

One may read the IC50 as the midpoint of a concentration-inhibition curve.
